The values below are quoted from earlier work in patent US20140328795A1, “VIRUCIDAL SMALL MOLECULE AND USES THEREOF” (The Texas A&M University System, priority 2012, published 2014).

This series relates to HIV. Particulars: VOICE trial among African women; cited from earlier work.

With `C[C@H](Cn1cnc2c(N)ncnc21)OCP(=O)(O)O` [tenofovir], the “protection against HIV” value is “failed to provide protection against HIV”.
